In test [1] the test system is IL-17. As to the kind of experiment: IL-17 gene expression in RA-patient synovial cells (RT-qPCR). It is filed as cell-based, human. The following applies: 2 h. On the procedure: Synovial fluid was freshly collected from 20 patients with rheumatoid arthritis (RA) by arthrocentesis. At two hours after treatment or not with 2,4-D, RA-patient synovial cells were directly lysed using TRIzol reagent (Invitrogen, USA) followed by RNA extraction according to the manufacturer's protocol. Finally, RNA was dissolved in 10 μL DEPC-treated water, quantified on a NanoDrop 2000 spectrophotometer (Thermo Scientific Inc., USA), and reverse-transcribed using the Super Script III First-Strand Synthesis System for RT-PCR kit (Thermo Scientific, USA) according to the manufacturer's protocol. PCR was performed in duplicate using SYBR Green qPCR master mix (Takara Biomedical Technology Co., Ltd, Dalian, China) on an ABI 7500 Real-Time PCR System (Thermo, USA). The cycling program was as follows: denaturation at 95° C. for 15 s, 40 cycles of 95° C. for 15 s and extension at 60° C. for 60 s, followed by melt curve generation. The ΔΔCT method was used to quantify relative mRNA levels as described in Example 1 above. The primer sequences specific for human IL-17 genes (hu-IL-17 Forward: 5′-[…]-3′; hu-IL-17 Reverse: 5′-GGCACTTTGCCTCCCAGAT-3′) (SEQ ID NOs 8 and 9, respectively) and IL-23 (see Example 1, above) were used.
Background: Real-time PCR tracks product formation cycle by cycle.

Test [2] concerns cell surface markers CD80, Ly6C, CD206, CXCR4, CCR2. As to the kind of experiment: Endometriosis mouse model, cell surface marker expression of peritoneal immune cells (flow cytometry). It is filed as in vivo. Conditions: 50 mg/kg/day, 5 times a week, 6 weeks. On the procedure: Experimental design. Balb/C female mice (10 weeks old) were habituated for 3 days to take a jelly containing (group EDT+2,4D) or not (groups No EDT and EDT+Vehicle) the compound. Surgical implantation of endometrial tissue from syngenic female in peritoneum, was performed at day 0 for groups EDT+Vehicle and EDT+2,4D. […] The vehicle or treatment was then given 5 times a week (50 mg/kg/day) during 6 weeks. Mice were then sacrificed and the peritoneal inflammation was assessed. All the details of the protocol are depicted in FIG. 27. Cytokine measurement in cell-free peritoneal lavage. After mice were euthanized, 5 mL of PBS was injected into the peritoneal cavity and the diluted peritoneal fluid containing the cells was then retrieved. The cells were pelleted by centrifugation at 500×g 4° C. and the supernatant (cell-free peritoneal fluid) was frozen at −80° C. for subsequent cytokine concentration measurement by ELISA. Cytokine concentration was assessed by ELISA kit in the peritoneal fluid (ThermoFisher, Mouse IL-1β, IL6 and TNFalpha Uncoated ELISA). […] The optical density was read with the Clariostar Plus Microplate Reader (BMG LABTECH), through the Clario software. Concentrations were calculated from a standard curve according to the manufacturer's protocol. Phenotypic study of immune cells from the peritoneal cavity assessed by flow cytometry. The pelleted peritoneal cells were resuspended in PBS-2% FBS and counted. One million cells were stained with the following fluorophore-conjugated antibodies purchased from BioLegend: CD45 BV510, CD11b APC-Cy7, CD11c PE, F4/80 BV711, CD80 PE Cy5, CD206 AF647, Ly-6C, PE-Cy7, CCR2 BV786 et CXCR4 BV421, CD45R/B220 PE Texas-Red, CD3E FITC, NK1.1 BV605 and CD69 PerCP-Cy5.5, Zombie-UV. Cells were incubated 20 min in the dark at 4° C., washed with PBS-2% FBS, and were fixed with paraformaldehyde 4% in 5 mL round-bottom polystyrene tubes (Falcon™ 352054). Compensation was adjusted with Ultracomp beads (ThermoFisher). All the antibodies were diluted at 1/200. All data were collected on LSR Fortessa flow cytometer (BD Bioscience, USA) and analyzed with FlowJo software. Statistical analysis. Outlier values farther than 2 standard deviation from the mean were not taken into account. Kruskal Wallis non-parametric test followed by Dunn's multiple comparisons test were performed for cytokines, One-Way Anova with Tukey's multiple comparisons test for flow cytometry data. *p<0.05, **p<0.01, ***p<0.001.
(A flow cytometer gives signals particle by particle.)

Test [3] has as its system TNF-alpha. As to the kind of experiment: MSU-induced TNF-alpha in knee joint tissue (multiplex microassay). It is filed as in vivo, mouse. Conditions: 2,4-D 100 mg/kg, CLC 1 mg/kg, DEX 0.5 mg/kg. The procedure:
Mice (six per group) were treated with 2,4-D (100 mg/kg or 20 mg/kg, i.p.), CLC (1 mg/kg or 0.2 mg/kg, i.p.), DEX (0.5 mg/kg or 0.1 mg/kg, i.p.), or vehicle (20% polyoxyethylenesorbitan monooleate (Tween 80) plus PBS) 30 min before intra-articular stimulus with MSU (100 μg/10 μL, i.a.). Six mice with intra-articular injection with PBS alone served as a negative control.
Induction of MSU-Induced Knee Joint Inflammation. Male ICR (CD-1) mice (35-45 g, 10-12 weeks) were purchased from VitalRiver Inc (Beijing, China) and were kept in an animal care facility under controlled temperature of 21±1° C., humidity, and on a light/dark cycle, with ad libitum access to water and standard laboratory chow diet. Animal care and handling procedures were approved by the Animal Ethics Committee of GZUCM (Guangzhou University of Chinese Medicine). All efforts were made to minimize animal suffering and to reduce the number of animals used. Joint inflammation was induced by the intra-articular (i.a.) administration of MSU (200 μg/20 μl) into the right and left knee joints of mice under inhaled 3% isoflurane anesthesia. Control animals received an injection (i.a.) of sterile PBS (20 μL).
Cytokine Measurement. Mice were anesthetized and sacrificed. Knee joints were collected and frozen in liquid nitrogen. Samples were then homogenized in 500 μl of buffer containing protease inhibitors, centrifuged (3600 rpm, 4° C., 15 min) and supernatants were used to determine Th1/Th2/Th17 cytokine levels using a multiplex microassay (Qantibody® mouse TH17 Array 1 kit, Cat. No.: QAM-TH17-1; RayBiotech, Norcross, GA). Results were expressed as picograms (pg) of cytokine/mg of tissue.
Statistical Analysis. […] For in vitro experiments, microassays were performed in quadruplicate. p<0.05 was considered significant (*p<0.05, **p<0.01, ***p<0.001).

With `COc1cc(O)c(OC)c(O)c1C(=O)/C=C/c1ccccc1` [2,4-D, 2′,4′-dihydroxy-3′,6′-dimethoxychalcone], the “decrease of IL-17 expression” value in test [1] (1 μg/ml) came out at 23 fold. Also, in test [1] (5 μg/ml), the “inhibition of IL-17 expression” value is given as 60 fold. In test [2], the CCR2 entry is “significantly reduced”, the CXCR4 result is “tended to decrease”, the Ly6C pro-inflammatory marker entry was “tended to decrease” and the “anti-inflammatory CD206 marker” value is on record as “did not reduce”. Further, the “decrease of TNF-alpha in knee joint tissue” value in test [3] is listed as 1.9 fold.

(Values after patent publication US20240335395A1, “COMPOSITIONS AND METHODS FOR PREVENTING AND/OR TREATING DISEASE ASSOCIATED WITH IL-23 EXPRESSION” (ALLSPIM, priority 2021, published 2024).)
